Experimental data: the NIST ThermoML archive (doi:10.1016/j.fluid.2016.10.024)
Numbers after ± are expanded uncertainties.

Assay: refractive index (Na D-line) (dimensionless)
Details: 293.15 K; 101.33 kPa; Liquid; Standard Abbe refractometry

Row | refractive index | Structure (SMILES)
1 | 1.3978 ± 0.0011 | CCC(C)O (stereo not drawn) [butan-2-ol]
2 | 1.3809 ± 0.001 | CCC(=O)O [propanoic acid]

Row | Structure (SMILES) | refractive index
3 | CC(C)=O [acetone] | 1.3588 ± 0.0011
